Test [1] deals with U2OS cells stably expressing GFP-LC3. The test is described as follows: Microinjection of AcCoA or CoA into the cytoplasm. The test is classed as cell-based, human. The settings on record: 10 mM injected; for Hydroxycitrate-induced autophagy after microinjection: HC-treated cells. As for the experimental part: For microinjection, U2Os cells were cultured overnight on glass coverslips before injection. The setup for the injection itself was as follows: 10 mM CoA or AcCoA were injected in PBS for 0.2 s under a pressure of 150 hPa, using a Microinjector equipment (Eppendorf, Hamburg, Germany). Then cells were culture for 3 h in the presence of 100 nM bafilomycin A1 (BafA1) and fixed for fluorescence microscopy, as described below.
For microinjection, U2OS cells were cultured overnight on culture dishes before injection. The setup for the injection itself was as follows: 10 mM CoA or AcCoA in PBS were injected for 0.2 s under an injection pressure of 150 hPa and a compensatory pressure of 9 hPa, using a microinjector (Eppendorf, Hamburg, Germany). Before injection, cells were cultured for 2 h in the presence of 100 nM bafilomycin A1 (BafA1) in control medium and in presence of 20 mm Hydroxycitrate. One hour after injection, cells were fixed with 4% PFA and analyzed by fluorescent and automated videomicroscopy.

For test [2], the system named is intracellular amino acid levels. The test is described as follows: Intracellular amino acid levels by mass spectrometry. The settings on record: starved cells. It is filed as cell-based. As for the experimental part:
Profiling of intracellular metabolites was performed on a RRLC 1260 system (Agilent Technologies) coupled to a QTOF 6520 (Agilent) equipped with an electrospray source operating in positive ion and full scan mode from 100 to 1000 Da. The gas temperature was set at 350° C. with a gas flow of 10 L·min^1. The capillary voltage was set at 4.0 kV, and the fragmentor at 150 V. Two reference masses were used to maintain the mass accuracy during analysis: 121.050873 (C5H4N4) and 922.009798 (C18H18O6N3P3F24). Five μL of sample were injected on a 150 mm×2.1 mm 3.5 μm SB Aq column (Agilent) with a pre-column 30 mm×2.1 mm 3.5 μm Eclipse plus (Agilent). The gradient mobile phase consisted of water with 10 mmol/L of ammonium acetate and 0.01% of acetic acid (A) and acetonitrile (B). Initial composition of mobile phase was 2% of B, followed by an increase to 95% of B in 10 min. The flow rate was set to 0.3 mL·min^−1.

Test [3] relates to MPA/DMBA induced mammary tumors. The test is described as follows: MPA/DMBA induced mammary tumor. It is filed as in vivo, mice. The settings on record: mouse, in vivo. As for the experimental part:
Six-week-old female Balb/c mice underwent surgical implantation of slow-release MPA (Medroxyprogesterone Acetate) pellets (50 mg, 90-day release; Innovative Research of America) subcutaneously on the right flank. 200 uL of 5 mg/mL DMBA (Dimethylbenzantracene)
(Sigma Aldrich) dissolved in Corn Oil was administered by oral gavage six times during 8 weeks. Tumor formation was monitored by palpation. When tumors became palpable, mice were assigned to following groups of treatment: PBS, HCA, MTX, MTX plus HCA and the MTX plus HCA upon CD4/CD8 lymphocytes depletion. Combinatorial groups were treated as previously described, whereas for CD4/CD8 depletion, mice were intraperitoneally administrated with 500 μg of anti CD4 and CD8 antibodies the day before the onset of the treatment.

The test system of the next test is cellular ATP levels. The test is described as follows: Cellular ATP levels. The test is classed as cell-based. Conditions: starved cells.
Test [4] deals with autophagy in mice tissues. The experiment in a line: Autophagy induction in tissues of fed mice (LC3 lipidation, p62, GFP-LC3 dots). It is filed as in vivo. As for the experimental part:
(§1) C57BL/6 mice (Charles River Laboratory, Lentilly, France) were bred and maintained according to both the FELASA and the Animal Experimental Ethics Committee Guidelines (Val de Marne, France). Mice were housed in a temperature-controlled environment with 12 h light/dark cycles and received food and water ad libitum. For HC-related experiments, mice were injected intraperitoneally with a single 100 mg/kg dose and 6 h later were sacrificed and tissues were immediately frozen in liquid nitrogen. For DCA- and DMKG-related experiments, mice were subjected to 24 h starvation and injected intraperitoneally each 8 h with a 100 mg/kg of either DCA or DMKG solution prepared in PBS. After 24 h of starvation, mice were sacrificed and tissues were immediately frozen in liquid nitrogen after extraction and homogenized two cycles for 20 s at 5,500 rpm using Precellys 24 tissue homogenator (Bertin Technologies, Montigny-le-Bretonneux, France) in a 20 mM Tris buffer (pH 7.4) containing 150 mM NaCl, 1% Triton X-100, 10 mM EDTA and Complete® protease inhibitor cocktail (Roche Applied Science). Tissue extracts were then centrifuged at 12,000 g at 4° C. and supernatants were collected. Protein concentration in the supernatants was evaluated by the bicinchoninic acid technique (BCA protein assay kit, Pierce Biotechnology, Rockford, Ill.). For hydroxycitrate-related weight-loss experiments, autophagy-deficient Atg4b^−/− mice were used. Atg4b^−/− mice have been previously described (Mariño et al., 2010). For HC-, spermidine-, and resveratrol-related experiments (tumour growth) mice were intraperitoneally injected with respectively 100 mg/kg, 50 mg/kg and 100 mg/kg doses at day 8 and day 9. At day 9, mice were intraperitoneally injected with 2 mg/kg single dose of Mitoxanthrone. For starvation related experiment (tumour growth) mice were treated as previously described (Fabrizio et. al., 2010).
To avoid post-mortem autophagy induction, dead mice were immediately perfused with 4% paraformaldehyde (w:v in PBS, pH 7.4). Tissues were then harvested and further fixed with the same solution for at least 4 h, followed by treatment with 15% sucrose (w:v in PBS) for 4 h and with 30% sucrose (w:v in PBS) overnight. Tissue samples were embedded in Tissue-Tek OCT compound (Sakura Finetechnical Co. Ltd., Tokyo, Japan) and stored at −70° C. Five μm-thick tissue sections were prepared with a CM3050 S cryostat (Leica Microsystems GmbH, Wetzlar, Germany), air-dried for 1 h, washed in PBS for 5 min, dried at RT for 30 min, and mounted with VECTASHIELD anti-fading medium. In each organ, the number of GFP-LC3 dots was counted in five independent visual fields from at least five mice using a TCS SP2 confocal fluorescence microscope (Leica Microsystems GmbH).
Six weeks old female C57BL/6, Balb/c and nude athymic mice (Harlan Laboratory, Gannat, France) were bred and maintained according to both the FELASA and the Animal Experimental Inserm Ethics Committee Guidelines (project: 2012-69). Mice were housed in a temperature-controlled environment with 12 h light/dark cycles and received food and water ad libitum. For tumor growth experiments, procedures adopted are described as follows: 3×10^5 tumor cells were subcutaneously inoculated; when tumors became palpable (day −1 before chemotherapy), mice were first intraperitoneally injected with 100 mg/kg Potassium Hydroxycitrate, 10 mg/kg Acetylsalicylic Acid, 30 mg/kg SB204990, 30 mg/kg c646, 5 mg/kg Rapamycin, 25 mg/kg Resveratrol, 50 mg/kg Spermidine. At day 0, mice were intraperitoneally injected with the abovementioned compounds and with 5.17 mg/Kg Mitoxanthrone or 5 mg/kg Oxaliplatin. Tumor size was measured every two days. For starvation experiments, mice underwent 48 hour fasting followed by intreperitoneal injection of chemotherapeutics. […]

In a further test the test system is MCA205 tumor. The test is described as follows: Growth of transplantable tumors with chemotherapy. The test is classed as in vivo, mice. Conditions: for tumor growth, combined with MTX: immunocompetent wild type mice, agent given before and with mitoxanthrone; for tumor growth, combined with MTX, immunodeficient mice: nu/nu (nude athymic) mice. As for the experimental part:
as §1
Six weeks old female C57BL/6, Balb/c and nude athymic mice (Harlan Laboratory, Gannat, France) were bred and maintained according to both the FELASA and the Animal Experimental Inserm Ethics Committee Guidelines (project: 2012-69). Mice were housed in a temperature-controlled environment with 12 h light/dark cycles and received food and water ad libitum. For tumor growth experiments, procedures adopted are described as follows: 3×10^5 tumor cells were subcutaneously inoculated; when tumors became palpable (day −1 before chemotherapy), mice were first intraperitoneally injected with 100 mg/kg Potassium Hydroxycitrate, 10 mg/kg Acetylsalicylic Acid, 30 mg/kg SB204990, 30 mg/kg c646, 5 mg/kg Rapamycin, 25 mg/kg Resveratrol, 50 mg/kg Spermidine. At day 0, mice were intraperitoneally injected with the abovementioned compounds and with 5.17 mg/Kg Mitoxanthrone or 5 mg/kg Oxaliplatin. Tumor size was measured every two days. For starvation experiments, mice underwent 48 hour fasting followed by intreperitoneal injection of chemotherapeutics. For autophagy induction study, 6 hours after CRMs administration, mice were sacrificed and tissues were snap-frozen in liquid nitrogen after extraction and homogenized two cycles for 20 s at 5,500 rpm using Precellys 24 tissue homogenator (Bertin Technologies, Montigny-le-Bretonneux, France) in a 20 mM Tris buffer (pH 7.4) containing 150 mM NaCl, 1% Triton X-100, 10 mM EDTA and Complete® protease inhibitor cocktail (Roche Applied Science, Penzberg, Germany). Tissue extracts were then centrifuged at 12,000 g at 4° C. and supernatants were collected. Protein concentration in the supernatants was evaluated by the bicinchoninic acid technique (BCA protein assay kit, Pierce Biotechnology, Rockford, US.

The conditions of test [5]: chronic treatment; cited from earlier work.

Each structure is given as a SMILES string. “Also recorded” adds a separate entry of the source.

With `CC(=O)SCCNC(=O)CCNC(=O)[C@H](O)C(C)(C)COP(=O)(O)OP(=O)(O)OC[C@H]1O[C@@H](n2cnc3c(N)ncnc32)[C@H](O)[C@@H]1OP(=O)(O)O` [AcCoA, acetyl-coenzyme A], in test [1], the “Hydroxycitrate-induced autophagy after microinjection” value is on record as “suppressed by microinjection of AcCoA”. For the same molecule, the “Hydroxycitrate-induced autophagy after microinjection” value in test [1] (listed as Acetyl CoA) is “inhibits Hydroxycitrate-induced autophagy”. Moreover, in test [1] (starved cells), the “cytoplasmic protein acetylation after microinjection” value is “increased the levels of cytoplasmic protein acetylation” and the “starvation-induced autophagic flux after microinjection” value is recorded as “reduced starvation-induced autophagic flux”.
As to `NC(=O)CC[C@H](N)C(=O)O` [glutamine], in test [2], the “intracellular amino acid levels” value is reported as “did increase cellular glutamate levels”.
Take `O=C1c2c(O)ccc(O)c2C(=O)c2c(NCCNCCO)ccc(NCCNCCO)c21` [MTX, mitoxanthrone]: in test [3], the “mammary tumor growth, monotherapy” value was “had little effect”.
Turning to `Cn1cnc(N)c2ncnc1-2` [3-MA, 3-methyladenine], in the test on cellular ATP levels, the “cellular ATP levels in starved cells” value is reported as “similarly reduced ATP content”.
As to `NCCCCNCCCN` [spermidine], the “autophagy in vivo (LC3 lipidation, p62, GFP-LC3)” value in test [4] is “elicits autophagy in mice muscle after 6 hours”. The results for the “tumor growth, combined with MTX” value in the test with MCA205 tumor and with MCA205 tumor (listed as Spermidine) were “capable to recapitulate the positive combinatorial effect of starvation; also recorded: HC could be replaced” and “mimics the effects of 48 h fasting in delaying subcutaneous MCA205 tumor growth; also recorded: can enhance chemotherapy efficacy”, respectively. In addition, the “tumor growth, combined with MTX, immunodeficient mice” value in the test with MCA205 tumor is “failed”. In test [5], the “health and life spans of mice” value was “extends the health and life spans of mice”.
Consider `Oc1ccc(C=Cc2cc(O)cc(O)c2)cc1` [resveratrol], for which the “autophagy in vivo (LC3 lipidation, p62, GFP-LC3)” value in test [4] is “elicits autophagy in mice muscle after 6 hours”. Further, in the test on MCA205 tumor, the “tumor growth, combined with MTX” value is “capable to recapitulate the positive combinatorial effect of starvation; also recorded: HC could be replaced” and the “tumor growth, combined with MTX, immunodeficient mice” value is given as “failed”. In addition, the “tumor growth, combined with MTX” value in the test on MCA205 tumor (listed as Resveratrol) was “mimics the effects of 48 h fasting in delaying subcutaneous MCA205 tumor growth”.

The record behind these values is patent US11040052B2, “Methods and pharmaceutical compositions for modulating autophagy in a subject in need thereof” (INSERM (INSTITUT NATIONAL DE LA SANTE ET DE LA RECHERCHE …, priority 2013, dated 2021).
